Like-named read-outs stand apart in the source and are kept apart here. *1 amine or outer side, *2 acyl side, *3 side chain or, on linkers, in order; H or OH if unused. Where a SMILES comes first, the peptide text is derived from it. Bridges are numbered along the chain shown (N, C = ends). [ ]: non-standard residue; d: D form. The star is where a group is joined. ξ: configuration not given here. Orn(4R-OH,5R-OH) = O=C([C@H](C[C@@H](O)[C@@H](O)N[*:3])N[*:1])[*:2]; hTyr(3S-OH,4S-OH) = N[C@H](C(=O)O)[C@H](O)[C@@H](O)c1ccc(O)cc1; ξOrn(4,5-diOH) = O=C(C(CC(O)C(O)N[*:3])N[*:1])[*:2]; ξhTyr(βξ-OH,γξ-OH) = NC(C(=O)O)C(O)C(O)c1ccc(O)cc1; Pro(3S-OH,4S-Me) = C[C@H]1CN[C@H](C(=O)O)[C@H]1O; Linoleoyl = CCCCC/C=C\C/C=C\CCCCCCCC(=O)*; ξPro(3ξ-OH,4ξ-Me) = CC1CNC(C(=O)O)C1O; Hyp = O=C(O)[CH]1C[CH](O)CN1; X1 = CCCCCC=CCC=CCCCCCCCC(=O)*

In data set [1] the test system is dermatophytes. The settings on record: reported by F. Benz et al., Helv. Chim. Acta 57, 2459-2477 (1974); cited from earlier work.
The next data set has as its system mice. The experiment in a line: acute toxicity in mice. The class given is in vivo. On the procedure:
3 times over 24 hours (a total of 600 mg./kg.).

Data set [2] has as its system dermatophytes. The experiment in a line: in vitro activity against dermatophytes. The class given is cell-based. The settings on record: in words. The procedure: (§1) Antibiotic A-22082 is a useful antifungal agent. […] Antifungal activity was measured by the conventional disc-diffusion method (6-mm pads were dipped in solutions containing antibiotic A-22082; pads were placed on agar plates seeded with test organism). Table II summarizes the minimal inhibitory concentration (MIC) per disc at which antibiotic A-22082 inhibited representative organisms.
(§2) Antibiotic A-22082 is very active in in vitro disc-diffusion tests against dermatophytes.

The test system of another data set is Trichophyton gallinae. Description: disc-diffusion test, Trichophyton gallinae. The class given is cell-based. The settings on record: Table III; 1 isolate. The procedure:
as §1, §2
Background: A growth-free zone around the sample is the usual read-out of agar diffusion tests.

For a further data set, the system named is Nannizzia incurvata. The experiment in a line: disc-diffusion test, Nannizzia incurvata. The class given is cell-based. The settings on record: Table III; 1 isolate. On the procedure: as §1, §2
Another data set in a line: electrometric titration. The settings on record: 66% aqueous dimethylformamide, initial pH 6.9. The class given is physicochemical.
In data set [3] the test system is Candida albicans. Description: disc-diffusion antifungal test, Candida albicans. The class given is cell-based. The settings on record: Table II, 6-mm pads, agar plates. On the procedure: as §1
For a further data set, the system named is Candida tropicalis. The experiment in a line: disc-diffusion antifungal test, Candida tropicalis. The class given is cell-based. The settings on record: Table II, 6-mm pads, agar plates. The procedure:
as §1

Data set [4] has as its system Trichophyton mentagrophytes. The experiment in a line: disc-diffusion antifungal test, Trichophyton mentagrophytes. The class given is cell-based. The settings on record: Table II, 6-mm pads, agar plates. The procedure: as §1, §2
The test system of another data set is Trichophyton terrestre. Description: disc-diffusion test, Trichophyton terrestre. The class given is cell-based. The settings on record: Table III; 1 isolate. On the procedure: as §1, §2
The subject of data set [5] is Candida albicans. Description: in vivo protection of Candida albicans-infected mice. The settings on record: two doses. The procedure: A measure of the protection afforded is the ED50 value [the effective dose in mg./kg. which protects 50 percent of the mice; see W. Wick et al., J. Bacteriol. 81, 233-235 (19610]. The ED50 values for antibiotic A-22082 against Candida albicans in mice were 30 mg./kg. (intraperitoneal administration) and 50 mg./kg. (subcutaneous administration).

Data set [6] has as its system Trichophyton schoenleinii. Description: disc-diffusion test, Trichophyton schoenleinii. The class given is cell-based. The settings on record: Table III; 1 isolate. The procedure:
as §1, §2

The subject of another data set is Trichophyton quinckeanum. Description: disc-diffusion test, Trichophyton quinckeanum. The settings on record: Table III; 1 isolate. The class given is cell-based. On the procedure: as §1, §2
The subject of a further data set is Trichophyton rubrum. The experiment in a line: disc-diffusion test, Trichophyton rubrum. The class given is cell-based. The settings on record: Table III; 1 isolate. On the procedure:
as §1, §2

The next data set has as its system Philaphere jean salemi. Description: disc-diffusion test, Philaphere jean salemi. The class given is cell-based. The settings on record: Table III; 1 isolate. The procedure:
as §1, §2

For data set [7], the system named is Epidermatophyton floccosum. Description: disc-diffusion test, Epidermatophyton floccosum. The class given is cell-based. The settings on record: Table III; 1 isolate. The procedure:
as §1, §2

A short description of another data set: solubility. The class given is physicochemical.
Another data set relates to Keratinomyces ajellio. The experiment in a line: disc-diffusion test, Keratinomyces ajellio. The class given is cell-based. The settings on record: Table III; 1 isolate. On the procedure:
as §1, §2

The next data set has as its system Trichophyton meginini. Description: disc-diffusion test, Trichophyton meginini. The class given is cell-based. The settings on record: Table III; 1 isolate. The procedure:
as §1, §2

Consider `CCCCCC=CCC=CCCCCCCCC(=O)NC1CC(O)C(O)NC(=O)C2C(O)C(C)CN2C(=O)C(C(C)O)NC(=O)C(C(O)C(O)c2ccc(O)cc2)NC(=O)C2CC(O)CN2C(=O)C(C(C)O)NC1=O` (stereo not drawn) [Echinocandin B] (X1-[ξOrn(4,5-diOH)]T[Hyp][ξhTyr(βξ-OH,γξ-OH)]T[ξPro(3ξ-OH,4ξ-Me)]; lactam 1-C; configuration not given here), for which, in the data set on dermatophytes [1], the activity against dermatophytes result is “inactive against dermatophytes”.

For the compound `CCCCC/C=C\C/C=C\CCCCCCCC(=O)N[C@H]1C[C@@H](O)[C@@H](O)NC(=O)[C@@H]2[C@@H](O)[C@@H](C)CN2C(=O)[C@H]([C@@H](C)O)NC(=O)[C@H]([C@H](O)[C@@H](O)c2ccc(O)cc2)NC(=O)[C@@H]2C[C@@H](O)CN2C(=O)[C@H]([C@@H](C)O)NC1=O` [antibiotic A-22082] (Linoleoyl-[Orn(4R-OH,5R-OH)]T[Hyp][hTyr(3S-OH,4S-OH)]T[Pro(3S-OH,4S-Me)]; lactam 1-C), the “signs of acute toxicity” value in the data set on mice (intraperitoneal, 100 mg./kg. twice per day for three days (total 600 mg./kg.)) is recorded as “no signs of acute toxicity”; in the data set on mice (ip, 200 mg./kg. 3 times over 24 hours (total 600 mg./kg.)), “no signs of acute toxicity”; in the data set on mice (subcutaneous, 100 mg./kg. twice per day for three days (total 600 mg./kg.)) it was “no signs of acute toxicity”. In addition, the activity against dermatophytes entry in the data set with dermatophytes [2] was “very active”; with dermatophytes [2] (listed as A-22082) it was “active against dermatophytes”. Besides, the MIC with Trichophyton gallinae is greater than 1.25 mcg/disc; in the data set with Nannizzia incurvata, 0.312 mcg/disc; against Trichophyton terrestre, 0.0195 mcg/disc; in data set [6] it was 0.0195 mcg/disc; with Trichophyton quinckeanum it was greater than 1.25 mcg/disc; in the data set with Trichophyton rubrum, “< .0098 mcg/disc”. Further, the MIC against Philaphere jean salemi is greater than 1.25 mcg/disc; in [7], 1.25 mcg/disc; in the data set with Keratinomyces ajellio, 0.156 mcg/disc; with Trichophyton meginini, 0.0195 mcg/disc. Besides, the pKa value in the data set “electrometric titration” is 12.7. For the same compound, the “minimal inhibitory concentration (MIC) per disc” value in the data set on Candida albicans [3] is 0.625 mcg./disc; in the data set with Candida tropicalis, 3.12 mcg./disc; in [4] it was 0.078 mcg./disc. The figures for the “ED50 (effective dose which protects 50 percent of the mice)” value in the data set on Candida albicans [5] (intraperitoneal administration) and with Candida albicans [5] (subcutaneous administration) were 30 mg/kg and 50 mg/kg, respectively. In the data set with Candida albicans [5] (Candida albicans-infected mice), the “protection against C. albicans” value is on record as “protection against C. albicans was provided”. Further, the “solubility in nonpolar organic solvents” value in “solubility” (diethyl ether, petroleum ether) is “insoluble”. In “solubility” (especially those having a pH greater than 7.0), the “solubility in aqueous solutions” value was “soluble”. For the same compound, the “solubility in organic solvents” value in “solubility” (methanol, ethanol, dimethylformamide, dimethyl sulfoxide, ethyl acetate) is reported as “soluble”.
